In patent US12528790B2, “Amide derivative having antiviral activity” (Shionogi & Co., Ltd., priority 2020, dated 2026):
pEC50: −log10 of the molar value. Read-outs that look alike come from different tables or passages of the source.

Key:
[1] = test system: RSV A2 strain; test: In vitro CPE (CytoPathic Effect) inhibition effect evaluation test, RSV type A; type: cell-based; details: inhibitory effect against RSV type A (RSV A2 strain), HEp-2 cells, CPE inhibition, read-out: EC50
Procedure, shortened: (§1)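 HEp-2 cells (2.4×10^5 cells/mL, 2% FBS E-MEM) were infected with RSV alongside 3-fold compound dilutions and incubated at 37 °C, 4 days for A2 and 5 days for B Wash/18537. Viable cells quantified by CellTiter-Glo 2.0 luminescence; EC50 by nonlinear regression as 50% CPE inhibition.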

[2] = test system: RSV B (Wash/18537 strain); test: In vitro CPE (CytoPathic Effect) inhibition effect evaluation test, RSV type B; type: cell-based; details: inhibitory effect against RSV type B, CPE inhibition, read-out: EC50
Procedure, shortened: as §1

[3] = human respiratory syncytial virus

O=C(NC1(C(=O)O)C2CC3CC(C2)CC1C3)c1cnc(N2CC3(CCOCC3)c3cc(OC4CCN(c5ncc(F)cn5)CC4)ccc32)nc1C(F)(F)F (centres unmarked) [Compound I-275]
pEC50 [1, 3]: > 8.00
pEC50 [2, 3]: > 8.00

N#Cc1cc(C(=O)NC2(C(=O)O)C3CC4CC(C3)CC2C4)c(C(F)(F)F)nc1N1CC2(CCOCC2)c2cc(OC3CCN(c4ncccn4)CC3)ccc21 (centres unmarked) [Compound I-276]
pEC50 [1, 3]: > 8.00
pEC50 [2, 3]: > 8.00

O=C(NC1(C(=O)O)C2CC3CC(C2)CC1C3)c1cnc(N2CC3(CCOCC3)c3cc(C(=O)N4CCN(c5ncccn5)CC4)ccc32)nc1C(F)(F)F (centres unmarked) [Compound I-353]
pEC50 [1]: > 8.00
pEC50 [2]: > 8.00

O=C(NC1(C(=O)O)C2CC3CC(C2)CC1C3)c1cnc(-c2cn(C3CCC(F)(F)CC3)c3cc(OC4CCC5(CC4)CN(CC(F)(F)F)C5)ccc23)nc1C(F)(F)F (centres unmarked) [Compound I-370]
pEC50 [1, 3]: > 8.00
pEC50 [2, 3]: 7.00 to 8.00

O=C(NC1(C(=O)O)C2CC3CC(C2)CC1C3)c1cnc(-c2cn(C3CC3)c3cc(OC4CCN(c5ncc(F)cn5)CC4)ccc23)nc1C(F)(F)F (centres unmarked) [Compound I-379]
pEC50 [1, 3]: > 8.00
pEC50 [2, 3]: > 8.00

CC(F)(F)c1nc(N2CC3(CCCCC3)c3cc(OC4CCN(c5ncccn5)CC4)ccc32)ncc1C(=O)NC1(C(=O)O)C2CC3CC(C2)CC1C3 (centres unmarked) [Compound I-380]
pEC50 [1, 3]: > 8.00
pEC50 [2, 3]: > 8.00

O=C(NC1(C(=O)O)C2CC3CC(C2)CC1C3)c1cnc(N2CC3(CCCCC3)c3cc(OC4CCN(CC(F)(F)F)CC4)ccc32)nc1C(F)(F)F (centres unmarked) [Compound I-382]
pEC50 [1, 3]: > 8.00
pEC50 [2, 3]: 7.00 to 8.00

O=C(NC1(C(=O)O)C2CC3CC(C2)CC1C3)c1cnc(N2CC3(CCOCC3)c3cc(OC4CCN(CC(F)(F)F)CC4)ccc32)nc1C(F)(F)F (centres unmarked) [Compound I-384]
pEC50 [1, 3]: > 8.00
pEC50 [2, 3]: > 8.00

O=C(NC1(C(=O)O)C2CC3CC(C2)CC1C3)c1cnc(N2CC3(CCCCC3)c3cc(OC4CCN(C5CC(F)(F)C5)CC4)ccc32)nc1C(F)(F)F (centres unmarked) [Compound I-393]
pEC50 [1, 3]: > 8.00
pEC50 [2, 3]: 7.00 to 8.00

CC(F)(F)c1nc(N2CC3(CCCCC3)c3cc(OC4CCN(c5ncc(F)cn5)CC4)ccc32)ncc1C(=O)NC1(C(=O)O)C2CC3CC(C2)CC1C3 (centres unmarked) [Compound I-396]
pEC50 [1, 3]: > 8.00
pEC50 [2, 3]: > 8.00

O=C(NC1(C(=O)O)C2CC3CC(C2)CC1C3)c1cnc(N2CC3(CCCCC3)c3cc(OC4CCC5(CC4)COC5)ccc32)nc1C(F)(F)F (centres unmarked) [Compound I-399]
pEC50 [1, 3]: > 8.00
pEC50 [2, 3]: 7.00 to 8.00

CC(F)(F)c1nc(N2CC3(CCCCC3)c3cc(OC4CCN(C5CC(F)(F)C5)CC4)ccc32)ncc1C(=O)NC1(C(=O)O)C2CC3CC(C2)CC1C3 (centres unmarked) [Compound I-400]
pEC50 [1, 3]: > 8.00
pEC50 [2, 3]: 7.00 to 8.00

CC(F)(F)c1nc(N2CC3(CCCCC3)c3cc(OC4CCC5(CC4)COC5)ccc32)ncc1C(=O)NC1(C(=O)O)C2CC3CC(C2)CC1C3 (centres unmarked) [Compound I-401]
pEC50 [1, 3]: > 8.00
pEC50 [2, 3]: 7.00 to 8.00

O=C(NC1(C(=O)O)C2CC3CC(C2)CC1C3)c1cnc(N2CC3(CCOCC3)c3cc(OC4CCN(c5ncc(F)cn5)CC4)ncc32)nc1C(F)(F)F (centres unmarked) [Compound I-402]
pEC50 [1, 3]: > 8.00
pEC50 [2, 3]: > 8.00

O=C(NC1(C(=O)O)C2CC3CC(C2)CC1C3)c1cnc(-c2cn(C3CCC(F)(F)CC3)c3cc(OC4CC5(C4)CN(CC(F)(F)F)C5)ccc23)nc1C(F)(F)F (centres unmarked) [Compound I-406]
pEC50 [1, 3]: > 8.00
pEC50 [2, 3]: 7.00 to 8.00

O=C(NC1(C(=O)O)C2CC3CC(C2)CC1C3)c1cnc(-c2cn(C3CCC(F)(F)CC3)c3cc(OC4CC5(C4)CN(c4ncc(F)cn4)C5)ccc23)nc1C(F)(F)F (centres unmarked) [Compound I-407]
pEC50 [1, 3]: > 8.00
pEC50 [2, 3]: 5.30 to 7.00

O=C(NC1(C(=O)O)C2CC3CC(C2)CC1C3)c1cnc(-c2cn(C3CCC(F)(F)CC3)c3cc(O[C@H]4CC[C@@H](N5CC(F)(F)C5)CC4)ccc23)nc1C(F)(F)F (some centres unmarked) [Compound I-415]
pEC50 [1, 3]: > 8.00
pEC50 [2, 3]: > 8.00

O=C(NC1(C(=O)O)C2CC3CC(C2)CC1C3)c1cnc(-c2cn(C3CCC(F)(F)CC3)c3cc(C(=O)N4CCN(CC(F)(F)F)CC4)ccc23)nc1C(F)(F)F (centres unmarked) [Compound I-418]
pEC50 [1, 3]: > 8.00
pEC50 [2, 3]: > 8.00

CCC(CC)n1cc(-c2ncc(C(=O)NC3(C(=O)O)C4CC5CC(C4)CC3C5)c(C(F)(F)F)n2)c2ccc(OC3CCN(c4ncc(F)cn4)CC3)cc21 (centres unmarked) [Compound I-421]
pEC50 [1, 3]: > 8.00
pEC50 [2, 3]: > 8.00

CC(F)(F)CN1CCC(Oc2ccc3c(-c4ncc(C(=O)NC5(C(=O)O)C6CC7CC(C6)CC5C7)c(C(F)(F)F)n4)cn(C4CCC(F)(F)CC4)c3c2)CC1 (centres unmarked) [Compound I-422]
pEC50 [1, 3]: > 8.00
pEC50 [2, 3]: > 8.00

O=C(NC1(C(=O)O)C2CC3CC(C2)CC1C3)c1cnc(-c2cn(C3CCC(F)(F)CC3)c3cc(OC4CCN(CC5(F)COC5)CC4)ccc23)nc1C(F)(F)F (centres unmarked) [Compound I-429]
pEC50 [1, 3]: > 8.00
pEC50 [2, 3]: 7.00 to 8.00

O=C(NC1(C(=O)O)C2CC3CC(C2)CC1C3)c1cnc(-c2cn(C3CCOCC3)c3cc(OC4CCN(c5ncc(F)cn5)CC4)ccc23)nc1C(F)(F)F (centres unmarked) [Compound I-431]
pEC50 [1, 3]: > 8.00
pEC50 [2, 3]: > 8.00

O=C(NC1(C(=O)O)C2CC3CC(C2)CC1C3)c1cnc(-c2cn(C3CCC4(CC3)COC4)c3cc(OC4CCN(c5ncc(F)cn5)CC4)ccc23)nc1C(F)(F)F (centres unmarked) [Compound I-437]
pEC50 [1, 3]: > 8.00
pEC50 [2, 3]: > 8.00

O=C(NC1(C(=O)O)C2CC3CC(C2)CC1C3)c1cnc(N2CC3(CCCCC3)c3cc(OC4CCC(N5CC(F)(F)C5)CC4)ccc32)nc1C(F)(F)F (centres unmarked) [Compound I-438]
pEC50 [1, 3]: > 8.00
pEC50 [2, 3]: > 8.00

CC(F)(F)c1nc(N2CC3(CCCCC3)c3cc(OC4CCN(CC(F)(F)F)CC4)ccc32)ncc1C(=O)NC1(C(=O)O)C2CC3CC(C2)CC1C3 (centres unmarked) [Compound I-440]
pEC50 [1, 3]: > 8.00
pEC50 [2, 3]: 7.00 to 8.00

CC(F)(F)c1nc(N2CC3(CCCCC3)c3cc(O[C@H]4CC[C@H](N5CC(F)(F)C5)CC4)ccc32)ncc1C(=O)NC1(C(=O)O)C2CC3CC(C2)CC1C3 (some centres unmarked) [Compound I-443]
pEC50 [1, 3]: > 8.00
pEC50 [2, 3]: > 8.00

O=C(NC1(C(=O)O)C2CC3CC(C2)CC1C3)c1cnc(N2CC3(CCCCC3)c3cc(C(=O)N4CCN(c5ncccn5)CC4)ccc32)nc1C(F)(F)F (centres unmarked) [Compound I-444]
pEC50 [1, 3]: > 8.00
pEC50 [2, 3]: > 8.00

COC1(C)CCC(Oc2ccc3c(-c4ncc(C(=O)NC5(C(=O)O)C6CC7CC(C6)CC5C7)c(C(F)(F)F)n4)cn(C4CCC(F)(F)CC4)c3c2)CC1 (centres unmarked) [Compound I-445]
pEC50 [1, 3]: > 8.00
pEC50 [2, 3]: > 8.00

O=C(NC1(C(=O)O)C2CC3CC(C2)CC1C3)c1cnc(-c2cn(-c3ccccn3)c3cc(OC4CCN(c5ncc(F)cn5)CC4)ccc23)nc1C(F)(F)F (centres unmarked) [Compound I-447]
pEC50 [1, 3]: > 8.00
pEC50 [2, 3]: > 8.00

O=C(NC1(C(=O)O)C2CC3CC(C2)CC1C3)c1cnc(-c2cn(C3CCC(F)(F)CC3)c3cc(OC4CCC(N5CC(F)(F)C5)C4)ccc23)nc1C(F)(F)F (centres unmarked) [Compound I-451]
pEC50 [1, 3]: > 8.00
pEC50 [2, 3]: 7.00 to 8.00

O=C(NC1(C(=O)O)C2CC3CC(C2)CC1C3)c1ccc(-c2cn(C3CCC(F)(F)CC3)c3cc(O[C@H]4CC[C@H](N5CC(F)(F)C5)CC4)ccc23)nc1C(F)(F)F (some centres unmarked) [Compound I-452]
pEC50 [1, 3]: > 8.00
pEC50 [2, 3]: > 8.00

CC(F)(F)c1nc(N2CC3(CCCCC3)c3cc(C(=O)N4CCN(c5ncccn5)CC4)ccc32)ncc1C(=O)NC1(C(=O)O)C2CC3CC(C2)CC1C3 (centres unmarked) [Compound I-453]
pEC50 [1, 3]: > 8.00
pEC50 [2, 3]: > 8.00

O=C(NC1(C(=O)O)C2CC3CC(C2)CC1C3)c1cnc(N2CC3(CCCCC3)c3cc(CN4CCN(c5ncccn5)CC4)ccc32)nc1C(F)(F)F (centres unmarked) [Compound I-463]
pEC50 [1, 3]: > 8.00
pEC50 [2, 3]: 5.30 to 7.00

CC(F)(F)c1nc(N2CC3(CCCCC3)c3cc(CN4CCN(c5ncccn5)CC4)ccc32)ncc1C(=O)NC1(C(=O)O)C2CC3CC(C2)CC1C3 (centres unmarked) [Compound I-464]
pEC50 [1, 3]: > 8.00
pEC50 [2, 3]: 5.30 to 7.00

CC(F)(F)c1nc(N2CC3(CCOCC3)c3cc(OC4CCN(CC(F)(F)F)CC4)ccc32)ncc1C(=O)NC1(C(=O)O)C2CC3CC(C2)CC1C3 (centres unmarked) [Compound I-465]
pEC50 [1, 3]: > 8.00
pEC50 [2, 3]: > 8.00

O=C(NC1(C(=O)O)C2CC3CC(C2)CC1C3)c1cnc(N2CC3(CCOCC3)c3cc(-n4ncc5c4CCN(CC(F)(F)F)C5)ccc32)nc1C(F)(F)F (centres unmarked) [Compound I-472]
pEC50 [1, 3]: > 8.00
pEC50 [2, 3]: > 8.00

O=C(NC1(C(=O)O)C2CC3CC(C2)CC1C3)c1cnc(N2CC3(CCCCC3)c3cc(OC4CC5(CCN(CC(F)(F)F)CC5)C4)ccc32)nc1C(F)(F)F (centres unmarked) [Compound I-473]
pEC50 [1, 3]: > 8.00
pEC50 [2, 3]: 5.30 to 7.00

O=C(NC1(C(=O)O)C2CC3CC(C2)CC1C3)c1cnc(N2CC3(CCCC3)c3cc(OC4CCN(CC(F)(F)F)CC4)ccc32)nc1C(F)(F)F (centres unmarked) [Compound I-474]
pEC50 [1, 3]: > 8.00
pEC50 [2, 3]: 7.00 to 8.00

O=C(N[C@]1(C(=O)O)[C@@H]2CC3C[C@H]1C[C@@](F)(C3)C2)c1cnc(-c2cn(C3CCC(F)(F)CC3)c3cc(O[C@H]4CC[C@H](N5CC(F)(F)C5)CC4)ccc23)nc1C(F)(F)F [Compound I-479]
pEC50 [1, 3]: > 8.00
pEC50 [2, 3]: > 8.00

CC(F)(F)c1nc(-c2cn(C3CCC(F)(F)CC3)c3cc(O[C@H]4CC[C@H](N5CC(F)(F)C5)CC4)ccc23)ncc1C(=O)NC1(C(=O)O)C2CC3CC(C2)CC1C3 (some centres unmarked) [Compound I-481]
pEC50 [1, 3]: > 8.00
pEC50 [2, 3]: > 8.00

O=C(NC1(C(=O)O)C2CC3CC(C2)CC1C3)c1cnc(N2CC3(CCCCC3)c3cc(OC4CCN(CC(F)F)CC4)ccc32)nc1C(F)(F)F (centres unmarked) [Compound I-482]
pEC50 [1, 3]: > 8.00
pEC50 [2, 3]: 7.00 to 8.00

O=C(NCC(F)(F)F)c1ccc2c(c1)C1(CCOCC1)CN2c1ncc(C(=O)NC2(C(=O)O)C3CC4CC(C3)CC2C4)c(C(F)(F)F)n1 (centres unmarked) [Compound I-483]
pEC50 [1, 3]: > 8.00
pEC50 [2, 3]: 5.30 to 7.00

O=C(NC1(C(=O)O)C2CC3CC(C2)CC1C3)c1cnc(N2CC3(CCCCC3)c3cc(OC4CCN(CC5(F)COC5)CC4)ccc32)nc1C(F)(F)F (centres unmarked) [Compound I-484]
pEC50 [1, 3]: > 8.00
pEC50 [2, 3]: 7.00 to 8.00
